From patent publication US20240294499A1, “TARGETED PROTEIN DEGRADATION USING BIFUNCTIONAL COMPOUNDS THAT BIND UBIQUITIN LIGASE AND TARGET MCL-1 PROTEIN” (Captor Therapeutics S.A., priority 2021, published 2024)

Tests used:
[1] = molecular target: T1, [MCL-1]-[compound of formula (I)]-[CRBN/DDB1] complex (Homo sapiens, UniProt Q07820+Q96SW2); experiment: AlphaLISA dose response ternary complex formation assay; type: binding; details: for EC50: read-out: AlphaLISA dose response Average pEC50 by molecule (converted)
T1 sequence (Q07820 whole entry): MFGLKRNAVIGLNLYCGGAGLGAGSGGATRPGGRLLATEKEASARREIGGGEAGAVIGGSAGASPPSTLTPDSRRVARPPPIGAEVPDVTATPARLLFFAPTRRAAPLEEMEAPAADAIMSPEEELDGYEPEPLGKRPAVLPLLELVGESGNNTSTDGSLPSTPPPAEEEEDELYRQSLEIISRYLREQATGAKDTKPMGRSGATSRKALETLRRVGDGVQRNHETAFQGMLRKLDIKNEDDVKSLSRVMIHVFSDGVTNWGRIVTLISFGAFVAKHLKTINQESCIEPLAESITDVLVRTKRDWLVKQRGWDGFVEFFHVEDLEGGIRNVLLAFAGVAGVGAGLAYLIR
T1 sequence (Q96SW2 whole entry): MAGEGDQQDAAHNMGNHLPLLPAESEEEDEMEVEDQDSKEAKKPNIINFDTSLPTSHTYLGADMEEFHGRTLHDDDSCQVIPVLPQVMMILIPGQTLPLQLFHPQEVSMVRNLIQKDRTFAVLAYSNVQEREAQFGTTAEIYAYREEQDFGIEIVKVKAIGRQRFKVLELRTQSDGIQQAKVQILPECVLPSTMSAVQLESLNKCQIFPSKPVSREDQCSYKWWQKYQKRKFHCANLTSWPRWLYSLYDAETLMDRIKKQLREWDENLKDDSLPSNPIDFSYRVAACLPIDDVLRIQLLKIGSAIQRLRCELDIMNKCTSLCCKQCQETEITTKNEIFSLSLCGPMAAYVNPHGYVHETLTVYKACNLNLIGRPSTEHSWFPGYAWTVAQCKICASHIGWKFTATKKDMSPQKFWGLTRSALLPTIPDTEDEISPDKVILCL
T1 sequence (Q16531 whole entry partner): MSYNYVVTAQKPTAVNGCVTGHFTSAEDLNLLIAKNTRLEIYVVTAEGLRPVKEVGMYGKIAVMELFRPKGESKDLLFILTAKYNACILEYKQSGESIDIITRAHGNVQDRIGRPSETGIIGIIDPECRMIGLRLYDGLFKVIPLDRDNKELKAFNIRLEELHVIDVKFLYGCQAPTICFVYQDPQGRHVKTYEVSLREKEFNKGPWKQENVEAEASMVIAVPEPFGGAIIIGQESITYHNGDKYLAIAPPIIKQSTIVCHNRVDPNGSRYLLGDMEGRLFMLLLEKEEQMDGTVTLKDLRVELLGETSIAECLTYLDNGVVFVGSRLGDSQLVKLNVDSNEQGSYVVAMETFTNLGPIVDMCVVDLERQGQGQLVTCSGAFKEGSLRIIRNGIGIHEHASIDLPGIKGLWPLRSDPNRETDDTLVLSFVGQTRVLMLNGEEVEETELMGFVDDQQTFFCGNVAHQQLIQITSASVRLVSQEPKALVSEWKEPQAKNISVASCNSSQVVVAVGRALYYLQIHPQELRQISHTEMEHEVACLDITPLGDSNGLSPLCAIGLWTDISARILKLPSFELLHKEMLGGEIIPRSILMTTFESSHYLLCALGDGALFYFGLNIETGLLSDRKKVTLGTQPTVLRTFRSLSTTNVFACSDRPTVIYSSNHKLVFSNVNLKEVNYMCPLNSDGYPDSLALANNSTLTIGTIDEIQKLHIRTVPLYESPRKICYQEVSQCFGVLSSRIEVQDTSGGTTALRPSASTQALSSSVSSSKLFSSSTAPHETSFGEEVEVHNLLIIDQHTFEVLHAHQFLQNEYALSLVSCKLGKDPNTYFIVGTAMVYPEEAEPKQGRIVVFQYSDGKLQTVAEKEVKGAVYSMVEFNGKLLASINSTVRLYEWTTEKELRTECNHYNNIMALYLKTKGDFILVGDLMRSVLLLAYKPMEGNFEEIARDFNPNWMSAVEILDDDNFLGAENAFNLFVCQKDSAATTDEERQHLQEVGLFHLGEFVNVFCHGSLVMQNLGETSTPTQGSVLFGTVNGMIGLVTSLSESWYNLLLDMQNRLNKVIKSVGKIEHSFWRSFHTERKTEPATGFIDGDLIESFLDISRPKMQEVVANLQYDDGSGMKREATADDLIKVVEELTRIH
In short: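 EC50 comes from dose–response of AlphaLISA luminescence (excitation 680, emission 615 nm), normalised between DMSO background and an internal positive control, with concentrations past the hook point dropped. Ternary complex formed by mixing bead-bound biotin-hMCL-1 and His-CRBN/DDB1 (protein solutions 40 and 200 nM) with compound in 2% DMSO, 30 min, 25 °C.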

[2] = molecular target: T1, [MCL-1]-[compound of formula (I)]-[CRBN/DDB1] complex; experiment: HTRF ternary complex assay; type: binding; details: ternary complex formation; for EC50: read-out: HTRF ternary complex Average pEC50 by molecule (converted)
Protocol: The effect of the bifunctional compounds of the invention on the formation of a ternary complex composed of [MCL-1]-[compound of formula (I)]-[CRBN/DDB1] was investigated.
Mix of protein solution were prepared: • 48 nM hMcl-1 and 105.6 nM CRBN was prepared in PPI Europium detection buffer with 2 mM DTT. • Acceptor and donor stock solutions were diluted 100 times in PPI Europium detection buffer. Equal volumes of both reagents were mixed. Finally giving 3 nM of Streptavidin-Eu cryptate […] and 6.67 nM of Anti-6× his-d2 […].
5 μl of protein mix was dispensed to all wells. The tested compounds in dose-response were dispensed onto a white 384-well low volume plate (Greiner, 784075). DMSO was backfilled to all wells, resulting in a final DMSO content of 0.5%. Wells containing only DMSO served as background. Next, 5 μl of solution with donor and acceptor was added to the wells.
The plate was sealed with transparent film and shaken using a VibroTurbulator for 60 see at level 3. The plate was then spun down shortly (10 s, 1000 rcf) and incubated at 25° C. for 180 min.
The read-out was performed with plate reader (Pherastar, BMG Labtech) in time resolved fluorescence mode. Filterset: TR 337 665 620.
The results were analyzed as follows: • 1) an average of fluorescence for background signal was calculated and used as a negative control; • 2) raw fluorescence values for tested compounds were normalized against negative controls; • 3) bell shape curve was fitted to a gaussian distribution using a non-linear least squares Gauss-Newton algorithm; • 4) EC50 and pEC50 values were determined.

MV-4-11 cells = experiment: Cell viability assay (CellTiter-Glo), MV-4-11; type: cell-based; details: 1% FBS; for IC50: Homo sapiens, MV4-11, 24 hours incubation, read-out: Average pIC50 by molecule MV-4-11 (converted)
In short: (§1)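 Luminescent ATP readout (CellTiter-Glo) at 24 hours measured viability, expressed relative to DMSO-treated wells. Compound was added directly to the medium as a 9–12-point threefold series starting at 30 uM, at 0.5% final DMSO. The medium contained FBS reduced to 1%.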

ARH-77 cells = experiment: Cell viability assay (CellTiter-Glo), ARH-77; type: cell-based; details: 1% FBS; for IC50: Homo sapiens, ARH-77, 24 hours incubation, read-out: Average pIC50 by molecule ARH-77 (converted)
In short: as §1

AlphaLISA dose response Average pEC50 by molecule [1] | HTRF ternary complex Average pEC50 by molecule [2] | Average pIC50 by molecule MV-4-11 (MV-4-11 cells; 24 hours incubation) | EC50 [1] [nM] | EC50 [2] [nM] | IC50 (MV-4-11 cells) [nM] | SMILES | Average pIC50 by molecule ARH-77 (ARH-77 cells; 24 hours incubation) | IC50 (ARH-77 cells) [nM]
>7 | >7 | ≥7.5 | – | – | – | Cc1nn(C)c(C)c1-c1c(Cl)ccc2c(CCCOc3cccc4cc(F)ccc34)c(C(=O)O)n(CCN3CCN(C(=O)COc4cccc5c4CN(C4CCC(=O)NC4=O)C5=O)CC3)c12 (atropisomer, axis not shown; (Sa)) [Compound 295, (Sa)-6-Chloro-1-(2-(4-(2-((2-(2,6-dioxopiperidin-3-yl)-1-oxoisoindolin-4-yl)oxy)acetyl)piperazin-1-yl)ethyl)-3-(3-((6-fluoronaphthalen-1-yl)oxy)propyl)-7-(1,3,5-trimethyl-1H-pyrazol-4-yl)-1H-indole-2-carboxylic acid] | <5.0 | –
– | – | – | < 100 | < 10 | ≤ 100 | Cc1nn(C)c(C)c1-c1c(Cl)ccc2c(CCCOc3cccc4cc(F)ccc34)c(C(=O)O)n(CCN3CCN(C(=O)Cn4c(C)nc5c(C(=O)NC6CCC(=O)NC6=O)ccc(C)c54)CC3)c12 (stereo not shown) [Compound 270, 6-Chloro-1-{2-[4-(2-{4-[(2,6-dioxopiperidin-3-yl)carbamoyl]-2,7-dimethyl-1H-1,3-benzodiazol-1-yl}acetyl)piperazin-1-yl]ethyl}-3-{3-[(6-fluoronaphthalen-1-yl)oxy]propyl}-7-(1,3,5-trimethyl-1H-pyrazol-4-yl)-1H-indole-2-carboxylic acid] | – | > 10000
– | – | – | < 10 | < 10 | ≤ 100 | Cc1nn(C)c(C)c1-c1c(Cl)ccc2c(CCCOc3cccc4cc(F)ccc34)c(C(=O)O)n(CCCOCCn3c(C)nc4c(C(=O)NC5CCC(=O)NC5=O)cccc43)c12 (stereo not shown) [Compound 280, 6-Chloro-1-[3-(2-{4-[(2,6-dioxopiperidin-3-yl)carbamoyl]-2-methyl-1H-1,3-benzodiazol-1-yl}ethoxy)propyl]-3-{3-[(6-fluoronaphthalen-1-yl)oxy]propyl}-7-(1,3,5-trimethyl-1H-pyrazol-4-yl)-1H-indole-2-carboxylic acid] | – | > 3160
– | – | – | < 100 | < 10 | ≤ 100 | Cc1nn(C)c(C)c1-c1c(Cl)ccc2c(CCCOc3cccc4cc(F)ccc34)c(C(=O)O)n(CCCNC(=O)Cn3c(C)nc4c(C(=O)NC5CCC(=O)NC5=O)cccc43)c12 (stereo not shown) [Compound 281, 6-Chloro-1-[3-(2-{4-[(2,6-dioxopiperidin-3-yl)carbamoyl]-2-methyl-1H-1,3-benzodiazol-1-yl}acetamido)propyl]-3-{3-[(6-fluoronaphthalen-1-yl)oxy]propyl}-7-(1,3,5-trimethyl-1H-pyrazol-4-yl)-1H-indole-2-carboxylic acid] | – | > 10000
– | – | – | < 100 | < 100 | ≤ 316 | Cc1nn(C)c(C)c1-c1c(Cl)ccc2c(CCCOc3cccc4cc(F)ccc34)c(C(=O)O)n(CCN3CCC(Nc4cccc5c4C(=O)N(C4CCC(=O)NC4=O)C5=O)CC3)c12 (stereo not shown) [Compound 308] | – | > 3160

The next lines start with the compound.

SMILES | AlphaLISA dose response Average pEC50 by molecule [1] | HTRF ternary complex Average pEC50 by molecule [2] | Average pIC50 by molecule MV-4-11 (MV-4-11 cells; 24 hours incubation) | EC50 [1] [nM] | EC50 [2] [nM] | IC50 (MV-4-11 cells) [nM] | Average pIC50 by molecule ARH-77 (ARH-77 cells; 24 hours incubation) | IC50 (ARH-77 cells) [nM]
Cc1nn(C)c(C)c1-c1c(Cl)ccc2c(CCCOc3cccc4ccccc34)c(C(=O)O)n(CCN3CCC(NC(=O)COc4cccc5c4CN(C4CCC(=O)NC4=O)C5=O)CC3)c12 (stereo not shown) [Compound 221, 6-chloro-1-{2-[4-(2-{[2-(2,6-dioxopiperidin-3-yl)-1-oxo-2,3-dihydro-1H-isoindol-4-yl]oxy}acetamido)piperidin-1-yl]ethyl}-3-[3-(naphthalen-1-yloxy)propyl]-7-(1,3,5-trimethyl-1H-pyrazol-4-yl)-1H-indole-2-carboxylic acid] | – | – | – | < 100 | < 100 | ≤ 10000 | – | > 31600
Cc1nn(C)c(C)c1-c1c(Cl)ccc2c(CCCOc3cccc4cc(F)ccc34)c(C(=O)O)n(CCN3CCC4CN(C(=O)COc5cccc6c5CN(C5CCC(=O)NC5=O)C6=O)CC43)c12 (stereo not shown) [Compound 301, 6-Chloro-1-{2-[5-(2-{[2-(2,6-dioxopiperidin-3-yl)-1-oxo-2,3-dihydro-1H-isoindol-4-yl]oxy}acetyl)-octahydropyrrolo[2,3-c]pyrrol-1-yl]ethyl}-3-{3-[(6-fluoronaphthalen-1-yl)oxy]propyl}-7-(1,3,5-trimethyl-1H-pyrazol-4-yl)-1H-indole-2-carboxylic acid] | – | – | – | < 10 | < 10 | ≤ 100 | – | > 10000
Cc1nn(C)c(C)c1-c1c(Cl)ccc2c(CCCOc3cccc4cc(F)ccc34)c(C(=O)O)n(CCC3CCC(NC(=O)COc4cccc5c4CN(C4CCC(=O)NC4=O)C5=O)CN3C)c12 (stereo not shown) [Compound 306, 6-Chloro-1-{2-[5-(2-{[2-(2,6-dioxopiperidin-3-yl)-1-oxo-2,3-dihydro-1H-isoindol-4-yl]oxy}acetamido)-1-methylpiperidin-2-yl]ethyl}-3-{3-[(6-fluoronaphthalen-1-yl)oxy]propyl}-7-(1,3,5-trimethyl-1H-pyrazol-4-yl)-1H-indole-2-carboxylic acid] | – | – | – | – | < 10 | ≤ 100 | – | > 10000
Cc1nn(C)c(C)c1-c1c(Cl)ccc2c(CCCOc3cccc4cc(F)ccc34)c(C(=O)O)n(CCN3CCN(CC4CN(c5cc6c(cc5F)C(=O)N(C5CCC(=O)NC5=O)C6=O)C4)CC3)c12 (stereo not shown) [Compound 334, 6-Chloro-1-(2-(4-((1-(2-(2,6-dioxopiperidin-3-yl)-6-fluoro-1,3-dioxoisoindolin-5-yl)azetidin-3-yl)methyl)piperazin-1-yl)ethyl)-3-(3-((6-fluoronaphthalen-1-yl)oxy)propyl)-7-(1,3,5-trimethyl-1H-pyrazol-4-yl)-1H-indole-2-carboxylic acid] | – | – | – | – | < 10 | ≤ 100 | – | > 3160
Cc1nn(C)c(C)c1-c1c(Cl)ccc2c(CCCOc3cccc4cc(F)ccc34)c(C(=O)O)n(CCN3CCN(C4CN(c5cc6c(cc5F)C(=O)N(C5CCC(=O)NC5=O)C6=O)C4)CC3)c12 (stereo not shown) [Compound 335, 6-Chloro-1-(2-(4-(1-(2-(2,6-dioxopiperidin-3-yl)-6-fluoro-1,3-dioxoisoindolin-5-yl)azetidin-3-yl)piperazin-1-yl)ethyl)-3-(3-((6-fluoronaphthalen-1-yl)oxy)propyl)-7-(1,3,5-trimethyl-1H-pyrazol-4-yl)-1H-indole-2-carboxylic acid] | – | – | – | – | < 10 | ≤ 31.6 | – | > 3160
Cc1nn(C)c(C)c1-c1c(Cl)ccc2c(CCCOc3cccc4cc(F)ccc34)c(C(=O)O)n(CCN3CCC(N4CCN(c5cc6c(cc5F)C(=O)N(C5CCC(=O)NC5=O)C6=O)CC4)CC3)c12 (stereo not shown) [Compound 336, 6-Chloro-1-[2-(4-{4-[2-(2,6-dioxopiperidin-3-yl)-6-fluoro-1,3-dioxo-2,3-dihydro-1H-isoindol-5-yl]piperazin-1-yl}piperidin-1-yl)ethyl]-3-{3-[(6-fluoronaphthalen-1-yl)oxy]propyl}-7-(1,3,5-trimethyl-1H-pyrazol-4-yl)-1H-indole-2-carboxylic acid] | – | – | – | – | < 10 | ≤ 100 | – | > 10000
Cc1nn(C)c(C)c1-c1c(Cl)ccc2c(CCCOc3cccc4cc(F)ccc34)c(C(=O)O)n(CCN3CC(N4CCN(c5cc6c(cc5F)C(=O)N(C5CCC(=O)NC5=O)C6=O)CC4)C3)c12 (stereo not shown) [Compound 337, 6-Chloro-1-(2-(3-(4-(2-(2,6-dioxopiperidin-3-yl)-6-fluoro-1,3-dioxoisoindolin-5-yl)piperazin-1-yl)azetidin-1-yl)ethyl)-3-(3-((6-fluoronaphthalen-1-yl)oxy)propyl)-7-(1,3,5-trimethyl-1H-pyrazol-4-yl)-1H-indole-2-carboxylic acid] | – | – | – | – | < 10 | ≤ 316 | – | > 10000
O=C1CCC(N2Cc3c(OCC(=O)N4CCN(CCn5c(C(=O)O)c(CCCOc6cccc7cc(F)ccc67)c6ccc(Cl)c(-c7cnn8cccnc78)c65)CC4)cccc3C2=O)C(=O)N1 (stereo not shown) [Compound 348, 6-Chloro-1-(2-(4-(2-((2-(2,6-dioxopiperidin-3-yl)-1-oxoisoindolin-4-yl)oxy)acetyl)piperazin-1-yl)ethyl)-3-(3-((6-fluoronaphthalen-1-yl)oxy)propyl)-7-(pyrazolo[1,5-a]pyrimidin-3-yl)-1H-indole-2-carboxylic acid] | – | – | – | – | < 100 | ≤ 316 | – | > 10000
